Data on 2 substances can be found in US12618062B2, “Display of molecules on silently genetically encoded nanoscale carriers for determining synergistic molecular interactions” (The Governors of the University of Alberta, priority 2017, dated 2026).

The target in this test is T1, Ulex Europaeus Agglutinin (UEA lectin) (Ulex europaeus, UniProt P22972).
T1 sequence (P22972 1-243): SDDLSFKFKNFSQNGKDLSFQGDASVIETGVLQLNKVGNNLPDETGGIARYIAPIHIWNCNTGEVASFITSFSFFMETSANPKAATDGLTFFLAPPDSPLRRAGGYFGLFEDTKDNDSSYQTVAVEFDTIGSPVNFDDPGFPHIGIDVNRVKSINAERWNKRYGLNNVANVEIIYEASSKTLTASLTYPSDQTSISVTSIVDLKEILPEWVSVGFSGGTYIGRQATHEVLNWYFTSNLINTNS
Put plainly: Pull-down of liquid glycan array and deep sequencing. Format: binding. To be noted: array of 74 glycans; FIG. 6H. The text has this:
The washing step was repeated three times.

On to “Fucα1-2Galb1-4[Fucα1-3]GlcNAcb-Phage [Te118]”, for which the “Enrichment in pull down by plant lectin UGA” value is reported as “enrichment not detected”.

With “GalNAcα1-3 [Fucα1-2]Galβ1-4G1cNAcβ-Phage [Te222]”, the “Enrichment in pull down by plant lectin UGA” value is listed as “enrichment not detected”.
